The text below walks through data of ChEMBL document CHEMBL5131385, “Novel piperazine based benzamide derivatives as potential anti-glioblastoma agents inhibiting cell proliferation and cell cycle progression” (Eur J Med Chem, 2022).

Series [1] in a line: Induction of apoptosis in human U-87 MG cells assessed as late apoptotic cells at 0.30 uM incubated for 72 hrs by Annexin V-FITC/PI staining based flow cytometry method (reference value: 0.42 %). The conditions noted are these: dose 0.3 µM. In kind it is functional, U-87MG ATCC. A general note: A flow cytometer gives signals particle by particle.
Series [2] in a line: Acute toxicity in Kunming mouse assessed as pathological changes in liver at 600 mg/kg, ip measured after 24 hrs by H and E staining analysis. It is filed as organism-based. The conditions noted are these: in vivo.
Series [3] is described as follows: Acute toxicity in Kunming mouse assessed as survival at 600 mg/kg, ip measured after 14 days. In kind it is organism-based. The conditions noted are these: in vivo, 336 h, time 14 day.
Series [4] can be described thus: Induction of apoptosis in human U-87 MG cells assessed as late apoptotic cells at 0.075 uM incubated for 72 hrs by Annexin V-FITC/PI staining based flow cytometry method (reference value: 0.42 %). It is filed as functional, U-87MG ATCC.
The nature of series [5]: Induction of apoptosis in human U-87 MG cells assessed as late apoptotic cells at 1.20 uM incubated for 72 hrs by Annexin V-FITC/PI staining based flow cytometry method (reference value: 0.42 %). It is filed as functional, U-87MG ATCC. The conditions noted are these: dose 1.2 µM.
Series [6] deals with U-251. Kind of series: Downregulation of cyclin D1 gene expression in human U-251 cells at 0.075 to 1.2 uM measured after 72 hrs by western blot analysis. The conditions noted are these: dose 0.075-1.2 µM. It is filed as functional, cell-based. For orientation: Immunoblotting shows a protein as a band on a membrane.
In series [7] the test system is U-251. Kind of series: Antiproliferative activity against human U-251 cells assessed as inhibition of cell proliferation upto 72 hrs by CCK8 assay. In kind it is functional, cell-based. The conditions noted are these: TDE = time-dependent effect.
In series [8] the test system is U-251. Kind of series: Induction of apoptosis in human U-251 cells assessed as early apoptotic cells at 0.375 uM incubated for 72 hrs by Annexin V-FITC/PI staining based flow cytometry method (Rvb =1.96 %). In kind it is functional.
The subject of series [9] is U-251. Kind of series: Induction of apoptosis in human U-251 cells assessed as enlargement of intracellular space at 0.375 to 6 uM measured after 72 hrs by Giemsa staining based microscopic analysis. It is filed as functional, cell-based. The conditions noted are these: dose 0.375-6 µM.
Series [10] deals with U-87MG ATCC. Kind of series: Induction of cell cycle arrest in human U-87 MG cells assessed as accumulation at G0/G1 phase at 0.075 to 1.2 uM and measured after 72 hrs by flow cytometry. In kind it is functional, cell-based. The conditions noted are these: dose 0.075-1.2 µM, DDE = dose-dependent effect.
Series [11] is described as follows: Antitumor activity against human U-87 MG cells xenografted in BALB/c mouse assessed as tumor growth inhibition at 10 mg/kg,ip bid for 1 month. It is filed as functional, U-87MG ATCC. The conditions noted are these: 730 h, time 1 months, read-out: TGI. On the technique in general: Xenograft models place foreign cells or tissue in a host animal.
Series [12] concerns U-87MG ATCC. Kind of series: Downregulation of pRb gene expression in human U-87 MG cells at 0.075 to 1.2 uM measured after 72 hrs by western blot analysis. The conditions noted are these: dose 0.075-1.2 µM. In kind it is functional, cell-based.
The subject of series [13] is U-251. Kind of series: Induction of cell cycle arrest in human U-251 cells assessed as decrease in accumulation at G2/M phase at 0.75 to 3 uM measured after 72 hrs by flow cytometry. In kind it is functional, cell-based. The conditions noted are these: dose 0.75-3 µM, DDE = dose-dependent effect.
Series [14] is described as follows: Induction of apoptosis in human U-87 MG cells assessed as early apoptotic cells at 0.30 uM incubated for 72 hrs by Annexin V-FITC/PI staining based flow cytometry method (reference value: 2.53 %). In kind it is functional, U-87MG ATCC. The conditions noted are these: dose 0.3 µM.
Series [15] has as its system U-87MG ATCC. Kind of series: Induction of apoptosis in human U-87 MG cells assessed as decrease in cell size at 0.075 to 1.20 uM measured after 72 hrs by Giemsa staining based microscopic analysis. In kind it is functional. The conditions noted are these: dose 0.075-1.2 µM.
Series [16] deals with U-87MG ATCC. Kind of series: Antimigratory activity in human U-87 MG cells assessed as inhibition of cell migration by measuring wound closure at 0.125 to 0.50 uM and measured after 24 hrs by wound healing assay. It is filed as functional, cell-based. The conditions noted are these: dose 0.125-0.5 µM, DDE = dose-dependent effect.
Series [17] can be described thus: AUC (0 to infinity) in Sprague-Dawley rat plasma at 100 mg/kg, ip and measured upto 240 mins by LC-MS analysis. In kind it is ADME, organism-based. Also noted: time < 240 min, dose 100 mg/kg, route ip.
In series [18] the test system is U-251. Kind of series: Induction of apoptosis in human U-251 cells assessed as early apoptotic cells at 6 uM incubated for 72 hrs by Annexin V-FITC/PI staining based flow cytometry method (Rvb =1.96 %). It is filed as functional.
Series [19] can be described thus: Acute toxicity in Kunming mouse assessed as pathological changes in spleen at 600 mg/kg, ip measured after 24 hrs by H and E staining analysis. In kind it is organism-based. The conditions noted are these: in vivo.
Series [20] in a line: AUC (0 to infinity) in Sprague-Dawley rat brain at 100 mg/kg, ip and measured upto 240 mins by LC-MS analysis. In kind it is ADME, organism-based. Also noted: dose 100 mg/kg, time < 240 min, route ip.

Activity calls are given as the source filed them. The calls are words filed in the database; no cut-off is given here.

As to `COCCN1CCN(c2ccc(F)cc2C(=O)Nc2ccc(CNC(=O)OCc3cccnc3)cc2)CC1`, the Activity in [1] is 0.95%; in [2], “Non-Toxic”; in series [3], “Non-Toxic”; in series [4], 0.41%; in [5] it was 9.97%; in the series on U-251 [7], “Tde”. The Activity was 1.9% in the series with U-251 [8]; “Dde” in the series on U-87MG ATCC [10]; “Dde” with U-251 [13]; 4.51% in series [14]; “Dde” with U-87MG ATCC [16]; 4.81% in the series with U-251 [18]. In addition, the Activity entry in [19] was “Non-Toxic”. The outcome with U-251 [6], with U-251 [9], in the series on U-87MG ATCC [12] and in the series with U-87MG ATCC [15] was Active. Besides, the inhibition in vivo at 10 mg/kg in [11] was determined as 70.5%. For the same compound, the AUC(0-inf) in series [17] came out at 95500 ng·h/mL; in series [20], 102000 ng·h/mL.

By AUC(0-inf) is commonly meant total exposure, with the tail of the curve extrapolated. A high value points to more exposure.
